Drawing on article PMC5433426, “Identification of small molecule inhibitors of the Lin28-mediated blockage of pre-let-7g processing” (Organic & Biomolecular Chemistry, 2016), this text covers IC50 for four molecules.

Where two headings read alike, the source gives them in different places.

In the experiment the target is T1, Lin28 (Homo sapiens, UniProt Q9H9Z2).
T1 construct: gene LIN28A; recombinant, N-terminal GST tag; multimeric on pre-let-7
T1 sequence (Q9H9Z2 1-209): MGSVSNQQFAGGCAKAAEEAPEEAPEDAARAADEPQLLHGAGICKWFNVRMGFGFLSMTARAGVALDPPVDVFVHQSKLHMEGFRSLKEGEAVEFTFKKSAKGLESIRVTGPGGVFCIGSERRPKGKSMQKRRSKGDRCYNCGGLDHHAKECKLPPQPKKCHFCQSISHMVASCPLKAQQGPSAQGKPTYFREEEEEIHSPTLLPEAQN
Kind of experiment: fluorescence polarization displacement of fluorescein-labelled tpre-let-7g RNA. It counts as binding.

The IC50 is the concentration needed to halve the response being measured. `NC(Cc1cc(O)c(O)cc1O)C(=O)O` (racemic) [compound 10, 6-hydroxy-DL-DOPA] displayed a half-maximal inhibitory concentration (IC50) of 7.05 ± 0.13 µM.

Consider `Nc1c(S(=O)(=O)O)cc(Nc2ccc(S(=O)(=O)O)c(Nc3nc(Cl)nc(Cl)n3)c2)c2c1C(=O)c1ccccc1C2=O` [11b, Reactive Blue 4], for which the concentration for half-maximal inhibition (IC50) (read-out: IC50) is 10.75 ± 0.1 µM.

On to `O=C(O)C1=CC(=C(c2ccc(O)c(C(=O)O)c2)c2ccc(O)c(C(=O)O)c2)C=CC1=O` [compound 4, Aurintricarboxylic acid], for which the IC50 (read-out: IC50) stood at 1.18 ± 0.23 µM.

Regarding `O=C(O)c1ccc2nc3c4c(O)ccc(O)c4c(=O)c(Cl)c-3oc2c1` [compound 14, SB/ZW/0065], the half-maximal inhibitory concentration (IC50) (read-out: IC50) is 4.71 ± 0.16 µM.
